“Also recorded” adds a separate entry of the source.
Columns and labels:
Format in all cases: biochemical
PRMT5/MEP50 complex = target: T1, PRMT5/MEP50 complex (Homo sapiens, UniProt O14744); experiment: HotSpot radioisotope-based filter assay, PRMT5; settings: Figure 2; from IC50 values of ref 31
T1 construct: residues PRMT5 2–637, C-terminus, and MEP50 2–342, C-terminus; FLAG (N); purchased Reaction Biology Corporation
Procedure: (§1) Then, ^3H-SAM (final concentration of 1 μM) was delivered into the reaction mixture to initiate the reaction. After incubation for 60 min at 30 °C, the reaction mixture was delivered to filter-paper for detection (as assessed by scintillation). Data were analyzed using Excel and GraphPad Prism 6.0 software (GraphPad Software Inc., San Diego, CA) for IC50 curve fits using sigmoidal dose vs response - variable slope (four parameters) equations.

PRMT3 = target: T2, PRMT3 (Homo sapiens, UniProt O60678); experiment: HotSpot radioisotope-based filter assay, PRMT3; settings: Figure 2; from IC50 values of ref 31
T2 construct: PRMT3 (residues 2–531, C-terminus); with an N-terminal His-tag; His (N); purchased Reaction Biology Corporation
T2 sequence (O60678 2-531): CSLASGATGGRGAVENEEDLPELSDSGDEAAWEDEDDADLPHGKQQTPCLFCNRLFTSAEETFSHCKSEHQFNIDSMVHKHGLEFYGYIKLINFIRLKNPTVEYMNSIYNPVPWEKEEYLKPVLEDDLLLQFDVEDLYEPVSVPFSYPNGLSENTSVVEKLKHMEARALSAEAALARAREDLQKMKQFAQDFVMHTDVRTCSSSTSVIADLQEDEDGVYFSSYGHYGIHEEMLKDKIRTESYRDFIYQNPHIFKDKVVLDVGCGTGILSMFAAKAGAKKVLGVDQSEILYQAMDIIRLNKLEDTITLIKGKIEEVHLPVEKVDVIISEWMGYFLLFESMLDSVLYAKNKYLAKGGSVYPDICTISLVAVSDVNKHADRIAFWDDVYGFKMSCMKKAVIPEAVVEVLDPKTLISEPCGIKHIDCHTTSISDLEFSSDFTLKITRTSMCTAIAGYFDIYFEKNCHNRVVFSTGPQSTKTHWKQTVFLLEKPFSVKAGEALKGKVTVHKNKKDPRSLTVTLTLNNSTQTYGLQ
Procedure: as §1

PRMT6 = target: T3, PRMT6 (Homo sapiens, UniProt Q96LA8); experiment: HotSpot radioisotope-based filter assay, PRMT6; settings: Figure 2; from IC50 values of ref 31
T3 construct: PRMT6 (residues 2–375, C-terminus); with an N-terminal GST-tag; GST (N); purchased Reaction Biology Corporation
T3 sequence (Q96LA8 2-375): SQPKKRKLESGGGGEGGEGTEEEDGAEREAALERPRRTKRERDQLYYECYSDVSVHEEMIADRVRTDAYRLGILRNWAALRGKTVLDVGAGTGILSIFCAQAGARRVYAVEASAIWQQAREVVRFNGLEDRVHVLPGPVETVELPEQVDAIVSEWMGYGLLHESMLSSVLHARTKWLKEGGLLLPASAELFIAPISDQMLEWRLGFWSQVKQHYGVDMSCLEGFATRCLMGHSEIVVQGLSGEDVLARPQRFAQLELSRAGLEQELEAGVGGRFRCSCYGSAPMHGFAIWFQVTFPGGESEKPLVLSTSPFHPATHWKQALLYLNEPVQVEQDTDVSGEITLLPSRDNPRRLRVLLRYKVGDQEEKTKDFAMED
Procedure: as §1

PRMT1 = target: T4, PRMT1 (Homo sapiens, UniProt Q99873); experiment: HotSpot radioisotope-based filter assay, PRMT1; settings: Figure 2; from IC50 values of ref 31
T4 construct: PRMT1 (residues 2–371, C-terminus); with an N-terminal GST-tag; GST (N); purchased Reaction Biology Corporation
T4 sequence (Q99873 2-371): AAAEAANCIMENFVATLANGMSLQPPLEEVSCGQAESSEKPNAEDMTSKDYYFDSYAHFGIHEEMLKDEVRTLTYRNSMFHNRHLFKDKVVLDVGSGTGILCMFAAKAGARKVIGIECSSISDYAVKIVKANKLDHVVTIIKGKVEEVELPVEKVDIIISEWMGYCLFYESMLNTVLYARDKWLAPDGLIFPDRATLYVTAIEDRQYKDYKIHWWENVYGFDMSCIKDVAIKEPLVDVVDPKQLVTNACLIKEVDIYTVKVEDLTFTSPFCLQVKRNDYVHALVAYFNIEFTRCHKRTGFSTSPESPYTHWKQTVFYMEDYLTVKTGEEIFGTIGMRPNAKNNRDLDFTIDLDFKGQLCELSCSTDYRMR
Procedure: as §1

human recombinant PRMT9 = target: T5, human recombinant PRMT9 (Homo sapiens, UniProt Q6P2P2); experiment: AlphaLISA PRMT9 activity assay (modified BPS kit, biotinylated SF3B2 peptide); settings: for IC50 / PRMT9 IC50: PRMT9 0.105 μM, biotinylated SF3B2 (500–519) peptide 100 nM, SAM 25 μM; for PRMT9 inhibition (in words): in-house AlphaLISA assay
T5 construct: human recombinant PRMT9 (2–845; N-terminal FLAG-tag, C-terminal His6-tag); FLAG (N); His6 (C); purchased BPS BioScience 79124
T5 sequence (Q6P2P2 2-845): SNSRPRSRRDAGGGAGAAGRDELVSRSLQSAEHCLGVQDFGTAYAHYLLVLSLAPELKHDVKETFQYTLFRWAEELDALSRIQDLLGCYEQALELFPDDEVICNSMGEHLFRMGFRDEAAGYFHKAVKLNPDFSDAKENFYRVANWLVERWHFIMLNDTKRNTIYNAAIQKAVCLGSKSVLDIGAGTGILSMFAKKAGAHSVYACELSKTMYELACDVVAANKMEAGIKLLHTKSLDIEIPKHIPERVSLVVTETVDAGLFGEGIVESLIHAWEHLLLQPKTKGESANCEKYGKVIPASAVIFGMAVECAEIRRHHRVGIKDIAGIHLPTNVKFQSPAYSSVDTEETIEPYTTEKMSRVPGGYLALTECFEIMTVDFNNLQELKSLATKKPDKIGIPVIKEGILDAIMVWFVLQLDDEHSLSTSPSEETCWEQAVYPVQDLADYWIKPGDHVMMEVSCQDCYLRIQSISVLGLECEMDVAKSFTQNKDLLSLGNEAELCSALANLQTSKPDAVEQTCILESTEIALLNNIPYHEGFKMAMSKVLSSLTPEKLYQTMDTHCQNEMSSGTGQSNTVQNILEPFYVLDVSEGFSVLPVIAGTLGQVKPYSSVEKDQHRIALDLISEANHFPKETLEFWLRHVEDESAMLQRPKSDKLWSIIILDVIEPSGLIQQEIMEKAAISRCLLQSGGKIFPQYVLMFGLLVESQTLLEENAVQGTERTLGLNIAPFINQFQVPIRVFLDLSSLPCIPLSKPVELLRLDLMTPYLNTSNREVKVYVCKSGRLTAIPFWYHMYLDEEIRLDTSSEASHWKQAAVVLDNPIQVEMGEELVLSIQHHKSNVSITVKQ
Procedure: Accordingly, all the enzymatic inhibition data were obtained by performing the assays in these optimized conditions.
The reaction was incubated for 60 min. Afterward, in each well, 5 μL of a 1:100 dilution of Primary antibody 28 (BPS BioScience, #52140Z3) in Detection buffer (BPS BioScience) and 5 μL of anti-Rabbit acceptor beads (PerkinElmer, #AL104C) were added to obtain a final concentration of 20 μg/mL.
For each incubation step, the OptiPlate was sealed with a protective foil to prevent evaporation and contamination. Donor and Acceptor beads were added to the mixture in subdued light.
The 100% activity (positive control) was reached using vehicle (DMSO), while 0% activity (negative control) was obtained without the protein. Data were analyzed by using Excel and Prism software. Values obtained for each compound are mean ± SD determined for three separate experiments.

PRMT4 = target: T6, PRMT4 (Homo sapiens, UniProt Q86X55); experiment: HotSpot radioisotope-based filter assay, PRMT4; settings: Figure 2; from IC50 values of ref 31
T6 construct: PRMT4 (residues 2–608, C-terminus); with an N-terminal GST-tag; GST (N); purchased Reaction Biology Corporation
T6 sequence (Q86X55 2-608): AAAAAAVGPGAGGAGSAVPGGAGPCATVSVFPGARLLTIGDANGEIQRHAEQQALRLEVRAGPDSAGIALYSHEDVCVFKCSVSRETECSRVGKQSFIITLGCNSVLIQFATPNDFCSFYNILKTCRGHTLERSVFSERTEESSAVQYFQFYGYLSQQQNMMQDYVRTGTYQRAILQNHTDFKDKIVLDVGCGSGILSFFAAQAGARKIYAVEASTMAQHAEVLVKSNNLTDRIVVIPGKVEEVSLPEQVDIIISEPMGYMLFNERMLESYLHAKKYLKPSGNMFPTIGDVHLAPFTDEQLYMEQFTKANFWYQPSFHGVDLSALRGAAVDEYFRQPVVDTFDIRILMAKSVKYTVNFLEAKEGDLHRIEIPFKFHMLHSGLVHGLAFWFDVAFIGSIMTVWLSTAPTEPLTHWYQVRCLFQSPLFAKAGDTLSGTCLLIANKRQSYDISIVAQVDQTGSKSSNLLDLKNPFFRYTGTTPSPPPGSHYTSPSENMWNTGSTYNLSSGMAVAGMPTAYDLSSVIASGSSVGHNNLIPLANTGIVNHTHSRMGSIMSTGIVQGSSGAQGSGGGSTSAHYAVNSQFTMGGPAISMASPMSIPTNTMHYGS
Procedure: as §1

PRMT8 = target: T7, PRMT8 (Homo sapiens, UniProt Q9NR22); experiment: HotSpot radioisotope-based filter assay, PRMT8; settings: Figure 2; from IC50 values of ref 31
T7 construct: (residues 61–394, C-terminus); with C- and N-terminal His-tags; His (N); His (C); purchased Reaction Biology Corporation
T7 sequence (Q9NR22 61-394): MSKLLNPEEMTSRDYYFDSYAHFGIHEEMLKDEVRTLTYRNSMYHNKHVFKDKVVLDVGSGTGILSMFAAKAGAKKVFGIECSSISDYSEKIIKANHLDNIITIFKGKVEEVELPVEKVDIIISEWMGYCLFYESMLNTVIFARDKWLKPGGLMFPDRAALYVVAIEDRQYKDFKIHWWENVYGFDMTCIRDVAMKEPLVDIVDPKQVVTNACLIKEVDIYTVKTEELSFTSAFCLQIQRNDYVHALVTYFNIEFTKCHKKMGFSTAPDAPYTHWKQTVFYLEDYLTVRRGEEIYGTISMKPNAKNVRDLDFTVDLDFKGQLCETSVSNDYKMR
Procedure: as §1

T1 sequence (O14744 2-637): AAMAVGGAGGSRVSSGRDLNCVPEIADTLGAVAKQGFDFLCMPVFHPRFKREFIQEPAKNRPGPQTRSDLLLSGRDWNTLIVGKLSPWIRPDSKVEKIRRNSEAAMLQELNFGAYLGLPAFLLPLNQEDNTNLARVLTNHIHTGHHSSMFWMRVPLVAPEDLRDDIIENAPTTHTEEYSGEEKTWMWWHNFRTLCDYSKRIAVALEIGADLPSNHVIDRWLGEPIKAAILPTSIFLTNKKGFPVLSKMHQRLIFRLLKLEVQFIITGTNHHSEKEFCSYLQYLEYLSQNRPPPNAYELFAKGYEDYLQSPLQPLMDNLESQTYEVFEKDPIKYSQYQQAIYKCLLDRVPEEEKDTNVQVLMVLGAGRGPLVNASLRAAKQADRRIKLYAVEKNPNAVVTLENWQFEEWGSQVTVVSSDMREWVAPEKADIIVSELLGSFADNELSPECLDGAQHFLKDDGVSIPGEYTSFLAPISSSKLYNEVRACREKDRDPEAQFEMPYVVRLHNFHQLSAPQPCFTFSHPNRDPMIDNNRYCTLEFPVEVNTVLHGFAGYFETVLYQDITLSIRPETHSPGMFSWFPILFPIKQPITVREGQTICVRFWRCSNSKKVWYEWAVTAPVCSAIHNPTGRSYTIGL
T1 sequence (Q9BQA1 2-342 partner limits assumed): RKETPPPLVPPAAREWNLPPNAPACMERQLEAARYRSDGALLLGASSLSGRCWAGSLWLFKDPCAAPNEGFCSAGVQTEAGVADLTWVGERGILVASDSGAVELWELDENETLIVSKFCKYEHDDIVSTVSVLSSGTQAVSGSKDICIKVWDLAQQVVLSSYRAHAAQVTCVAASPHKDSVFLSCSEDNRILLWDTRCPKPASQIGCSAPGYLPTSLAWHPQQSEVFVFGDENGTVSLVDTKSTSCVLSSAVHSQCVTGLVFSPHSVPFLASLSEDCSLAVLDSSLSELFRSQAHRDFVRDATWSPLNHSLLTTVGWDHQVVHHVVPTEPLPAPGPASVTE

selectivity index for PRMT7 over PRMT5 (PRMT5/MEP50 complex) [fold] | selectivity index for PRMT7 over PRMT3 (PRMT3) [fold] | selectivity index for PRMT7 over PRMT6 (PRMT6) [fold] | selectivity index for PRMT7 over PRMT1 (PRMT1) [fold] | IC50 (human recombinant PRMT9) [µM] | selectivity index for PRMT7 over PRMT4 (PRMT4) [fold] | selectivity index for PRMT7 over PRMT8 (PRMT8) [fold] | PRMT9 IC50 (human recombinant PRMT9) | Structure (SMILES) | PRMT9 inhibition (in words) (human recombinant PRMT9)
– | – | – | – | – | – | – | no inhibition | O=C(Nc1ccc2cc(C(=O)O)cc(O)c2c1)Nc1ccc2cc(C(=O)O)cc(O)c2c1 [EML108] | no PRMT9 inhibition; also recorded: no activity
– | – | – | – | – | – | – | no inhibition | COC(=O)c1c[nH]c2ccc(NC(=O)CC(=O)Nc3ccc4[nH]cc(C(=O)OC)c4c3)cc12 [EML147] | no PRMT9 inhibition; also recorded: no activity
– | – | – | – | – | – | – | no inhibition | O=C(CC(=O)Nc1ccc2[nH]cc(C(=O)O)c2c1)Nc1ccc2[nH]cc(C(=O)O)c2c1 [EML148] | no PRMT9 inhibition; also recorded: no activity
– | – | – | – | – | – | – | no inhibition | CCOC(=O)c1cc2cc(NC(=O)CNC(=O)Nc3ccc([N+](=O)[O-])cc3)ccc2[nH]1 [EML105] | no PRMT9 inhibition; also recorded: no activity
– | – | – | – | – | – | – | no inhibition | COC(=O)c1cc(O)c2cc(NC(=O)Nc3ccc4cc(C(=O)OC)cc(O)c4c3)ccc2c1 [EML107] | no PRMT9 inhibition; also recorded: no activity
– | – | – | – | – | – | – | no inhibition | O=C(Nc1ccc2[nH]cc(C(=O)O)c2c1)Nc1ccc2[nH]cc(C(=O)O)c2c1 [EML145] | no PRMT9 inhibition; also recorded: no activity

The remaining lines, values behind:

Structure (SMILES) | selectivity index for PRMT7 over PRMT5 (PRMT5/MEP50 complex) [fold] | selectivity index for PRMT7 over PRMT3 (PRMT3) [fold] | selectivity index for PRMT7 over PRMT6 (PRMT6) [fold] | selectivity index for PRMT7 over PRMT1 (PRMT1) [fold] | IC50 (human recombinant PRMT9) [µM] | selectivity index for PRMT7 over PRMT4 (PRMT4) [fold] | selectivity index for PRMT7 over PRMT8 (PRMT8) [fold] | PRMT9 IC50 (human recombinant PRMT9) | PRMT9 inhibition (in words) (human recombinant PRMT9)
COC(=O)c1cc(O)c2cc(NC(=O)NCCCCNC(=N)NCC[C@H]3O[C@@H](n4cnc5c(N)ncnc54)[C@H](O)[C@@H]3O)ccc2c1 [1f] | 0.51 | 46 | 100 | 22 | 1.2 | 0.04 | 27 | – | –
COC(=O)c1cc(O)c2cc(NC(=O)NCCCCCCCNC(=N)NC[C@H]3O[C@@H](n4cnc5c(N)ncnc54)[C@H](O)[C@@H]3O)ccc2c1 [1e] | 5 | 20 | 56 | 4 | 1.3 | 0.28 | 9 | – | –
COC(=O)c1cc(O)c2cc(NC(=O)NCCCCNC(=N)NCCC[C@H]3O[C@@H](n4cnc5c(N)ncnc54)[C@H](O)[C@@H]3O)ccc2c1 [1g] | 0.17 | 3 | 0.93 | 0.38 | > 10 | 0.002 | 0.3 | – | –
COC(=O)c1cc(O)c2cc(NC(=O)NCCCCCCNC(=N)NC[C@H]3O[C@@H](n4cnc5c(N)ncnc54)[C@H](O)[C@@H]3O)ccc2c1 [1d] | – | – | – | – | 1.02 | – | – | – | –

— article PMC10578352, “Identification of a Protein Arginine Methyltransferase 7 (PRMT7)/Protein Arginine Methyltransferase 9 (PRMT9) Inhibitor” (Journal of Medicinal Chemistry, 2023)
